Legend:
λ-DNA/EB adduct = experiment: Quenching of fluorescence of λ-DNA/ethidium bromide adduct; format: binding, bacteriophage lambda; conditions: λ-DNA pre-treated with EB, increments of complex, pH 8
Experimental: To determine whether compounds have the capacity to interact with DNA, 48,500 base-pairs of genomic DNA from bacteriophage lambda (λ-DNA, Promega. Madison USA) was used. A stock solution of 10 µM λ-DNA (base-pair concentration) was prepared in 10 mM Tris/HCl buffer containing 1 mM NaCl, pH 8.
The binding of compounds to λ-DNA was assayed by monitoring the quenching of fluorescence emitted by λ-DNA/ethidium bromide (EB) adduct (λexcit = 510, maximum emission at λem = 601). The λ-DNA solution was added to the EB solution, prepared in the same buffer, then increasing concentrations of compounds were added to EB-DNA [2, 48]. The fluorescence spectra were recorded in the range of 550–750 nm using a Thermo Fischer Scientific Varioskan Flash spectral scanning multimode reader (Vantaa, Finland). The spectra were recorded in suitable plates using 5 nm excitation and emission slits for all measurements.

P. aeruginosa 27853 [1] = experiment: MBEC assay, micro-titer method (biofilm); format: cell-based, Pseudomonas aeruginosa
Experimental: (§1) The antibacterial assays were performed on Gram-negative (Escherichia coli ATCC 25922, E. coli 5, Pseudomonas aeruginosa ATCC 27853, P. aeruginosa ATCC 9027) and Gram-positive (Staphylococcus aureus ATCC 25923, S. aureus ATCC 6538, MRSA (Meticillin-resistant S. aureus) 388, ATCC, American Type Culture Collection) bacterial strains. Microbial suspensions (1.5 × 10^8 CFU/mL; colony forming units (CFU)) corresponding to 0.5 McFarland density obtained from 15 to 18-h bacterial cultures developed on solid media were used. The antimicrobial activity was tested on Mueller–Hinton agar medium.
(§2) The assessment of the complexes’ influence on the microbial ability to colonize an inert substratum with the establishment of the minimal biofilm eradication concentration (MBEC) was performed by the micro-titer method, following previously described protocols. The absorbance at 490 nm was measured with an Apollo LB 911ELISA (Berthold Technologies GmbH & Co. KG, Waltham, MA, USA) reader. All experiments were performed in triplicates.

P. aeruginosa 9027 [2] = experiment: MBEC assay, micro-titer method (biofilm); format: cell-based, Pseudomonas aeruginosa
Experimental: as §1, §2

BJ cells = experiment: Phalloidin staining and cell imaging (cytoskeleton, nucleus); format: cell-based, Human; conditions: 24 h, 6 μg/mL
Experimental: Cytoskeleton actin filaments of BJ and B16 cells were stained with phalloidin-FITC (Sigma-Aldrich, USA) according to the manufacturer’s protocol. Briefly, cells were washed with PBS (5 min, 3 times), fixed for 5 min with 3% paraformaldehyde, washed three times with PBS, permeabilized with 0.1% Triton X-100 in PBS for 15 min, washed three times with PBS, stained with 20 μg mL^−1 phalloidin-FITC at room temperature for 1 h and washed again three times with PBS. Cell nucleus was stained with 8 μM of Hoechst 33342 solution for 10 min, washed three times with PBS and finally, mounted and sealed on glass slides with FluorSave™ Reagent (Merck Millipore, Germany). The fluorescence images were acquired using an Andor DSD2 Confocal Unit (Andor, Ireland), mounted on an epifluorescence microscope, Olympus BX-51 (Olympus, Germany), equipped with a 40x and 100x objective and an appropriate DAPI/Hoechst filter cube (excitation filter 390/40 m, dichroic mirror 405 nm and emission filter 452/45 nm) and GFP/FITC filter cube (excitation filter 466/40 nm, dichroic mirror 488 nm and emission filter 525/54 nm).

S. aureus 6538 [3] = experiment: MBEC assay, micro-titer method (biofilm); format: cell-based, Staphylococcus aureus
Experimental: as §1, §2

MRSA [4] = experiment: MBEC assay, micro-titer method (biofilm); format: cell-based, Staphylococcus aureus
Experimental: as §1, §2

S. aureus 6538 [5] = experiment: MIC assay, liquid medium microdilution (planktonic growth); format: cell-based, Staphylococcus aureus; conditions: S. aureus 6538, 24 h at 37 °C
Experimental: as §1
(§3) The quantitative assay of the antimicrobial activity was performed by the liquid medium microdilution method, in 96-well multi-well plates, to establish the minimal inhibitory concentration (MIC). For this purpose, serial two-fold dilutions of the compounds ranging between 1.000 and 1.95 μg/mL were performed in a 200 μL volume of broth and each well was seeded with 50 μL microbial inoculums. Sterility control (wells containing only culture medium) and culture controls (wells containing culture medium seeded with the microbial inoculum) were used. The influence of the DMSO solvent was also quantified in a series of wells containing DMSO, diluted accordingly with the dilution scheme used for the complexes. The plates were incubated for 24 h at 37 °C, and MIC values were considered as the lowest concentration of the tested compound that inhibited the visible growth of the microbial overnight cultures.

S. aureus 25923 = experiment: as above; format: cell-based, Staphylococcus aureus; conditions: S. aureus 25923, 24 h at 37 °C
Experimental: as §1, §3

MRSA [6] = experiment: as above; format: cell-based, Staphylococcus aureus; conditions: 24 h at 37 °C
Experimental: as §1, §3

[7] = test system: Saccharomyces cerevisiae (wild-type, WT) laboratory strain BY4741; experiment: Yeast cell proliferation (toxicity); format: cell-based; conditions: for Effect on cell proliferation: 0.1–0.2 mM final concentration in liquid YPD, compared to cells grown without compounds; for IC50: S. cerevisiae BY4741 (WT), liquid YPD
Experimental: The Saccharomyces cerevisiae laboratory strain BY4741 (MATa; his3Δ1; leu2Δ0; met15Δ0; ura3Δ0), considered wild type (WT), and the isogenic strains sod1Δ and sod2Δ lacking the genes SOD1 (encoding Cu/Zn-superoxide dismutase) and SOD2 (encoding Mn-superoxide dismutase) were purchased from EUROSCARF (Frankfurt, Germany). Cells were maintained and manipulated and grown in YPD medium (1% w/v yeast extract, 2% w/v peptone, 2% w/v glucose; 2% w/v agar was added for solid media). Complexes were added to autoclaved media from DMSO sterile stocks (10 mM). To determine the effect of compounds on yeast growth, a fresh overnight pre-culture was 10^3-fold diluted in YPD and incubated (200 rpm, 30 °C) until the culture reached a density of 5 × 10^5 cells/mL. At this point, the compounds were added to the desired concentrations, and cell proliferation was monitored at 660 nm in a 96-well multi-scanner autoreader plate reader equipped with a thermostat and shaker (Varioskan Thermo Fischer Scientific, Vantaa, Finland). The uptake of compounds by yeast cells was determined indirectly by measuring the increase of the total cellular copper content normalized to the total cellular protein determined by Bradford assay. All determinations were done on three biological replicates. The IC50 was calculated by nonlinear regression analysis using the Graphpad Prism software.

P. aeruginosa 27853 [8] = experiment: MIC assay, liquid medium microdilution (planktonic growth); format: cell-based, Pseudomonas aeruginosa; conditions: P. aeruginosa 27853, 24 h at 37 °C
Experimental: as §1, §3

P. aeruginosa 9027 [9] = experiment: as above; format: cell-based, Pseudomonas aeruginosa; conditions: P. aeruginosa 9027 (multi-drug-resistant), 24 h at 37 °C
Experimental: as §1, §3

| SMILES | Fluorescence of λ-DNA/EB adduct on adding complex (λ-DNA/EB adduct) | MBEC value (P. aeruginosa 27853 [1]) [mM] | MBEC value (P. aeruginosa 9027 [2]) [mM] | Cell morphology (cytoskeleton and nucleus) (BJ cells) | MBEC value (S. aureus 6538 [3]) [mM] | MBEC value (MRSA [4]) [mM] | MIC (S. aureus 6538 [5]) [µM] | MIC (S. aureus 25923) [µM] | MIC (MRSA [6]) [µM] | Effect on cell proliferation [7] | IC50 [7] [µM] | MIC (P. aeruginosa 27853 [8]) [µM] | MIC (P. aeruginosa 9027 [9]) [µM] |
| --- | --- | --- | --- | --- | --- | --- | --- | --- | --- | --- | --- | --- | --- |
| Cc1cc(-c2ccccc2)nc2ncnn12.[Cu+2].[O-][Cl+3]([O-])([O-])[O-].[O-][Cl+3]([O-])([O-])[O-].c1ccc(-c2ccccn2)nc1.c1ccc(-c2ccccn2)nc1 [(1), [Cu(bpy)2(pmtp)](ClO4)2] | the fluorescence intensity decreased | 0.40 | 0.20 | does not alter its morphology | 0.10 | 0.40 | 400 | 400 | 400 | did not significantly affect cell proliferation | 480 ± 160 | 400 | 400 |
| Cc1cc(-c2ccccc2)nc2ncnn12.[Cu+2].[O-][Cl+3]([O-])([O-])[O-].[O-][Cl+3]([O-])([O-])[O-].c1cnc2c(c1)ccc1cccnc12.c1cnc2c(c1)ccc1cccnc12 [(2), [Cu(phen)2(pmtp)](ClO4)2] | the fluorescence intensity decreased | 0.09 | 0.01 | affects the cell morphology | 0.02 | 0.05 | 90 | 10 | 50 | did not significantly affect cell proliferation | 580 ± 210 | 90 | 90 |
